According to patent publication US5770563A, “Heparin- and sulfatide binding peptides from the type I repeats of human thrombospondin and conjugates thereof” (The United States of America as represented by the …, priority 1995, dated 1998):
Square brackets hold non-standard residues; d marks the D form. Ends that are not written are not given here. Peptide text beside a SMILES is read from it.

How the values were obtained:
AIDS-KS cells [1] = assay: AIDS-KS cell chemotaxis, modified Boyden chamber; assay type: cell-based, human
Experimental: Directed migration (chemotaxis) and general migration (chemokinesis) of AIDS-KS cells in culture was measured by the modified Boyden chamber assay using fibronectin coated […] Nucleopore filters as previously described. In brief, the AIDS-KS cells, were trypsinized then resuspended in RPMI 1640 containing […] (GIBCO-BRL) and 20% activated lymphocyte conditioned medium. The trypsinized cells were allowed to recover in suspension for 2 hours, then the cells were recovered by centrifugation and resuspended in RPMI 1640 containing 0.1% BS at 5×10^5 cells/ml prior to adding 100 μl to the upper wells in the chemotaxis chamber. Migration to BSA (0.1%) and OSM was performed in the presence of the indicated concentrations of TSP, and TSP peptide-FICOLL conjugates. After 3 hours incubation at 37° C. filters were stained with Diff Quick (Merz-Dade, Dudingen, Switzerland), and the migrated cells in ten high-power fields were counted. The values are triplicate determinations and the bars indicate standard deviations, n=3.

AIDS-KS cells [2] = assay: AIDS-KS cell proliferation; assay type: cell-based, human
Experimental: AIDS-KS cell strains were cultured as previously described (Nakamura, S. et al. "Kaposi's Sarcoma Cells: Long-Term Culture with Growth Factor From Retrovirus-Infected CD4+T Cells", Science, (1988) 242:426; and Salahuddin, S. Z. et al. "Angiogenic Properties of kaposi's Sarcoma-Derived Cells After Long-Term Culture In Vitro", Science (1988) 242:430). TSP was purified from thrombin-stimulated human platelets as described. TSP peptides and peptide conjugates were synthesized corresponding to sequences of human TSP as described.
For the cell proliferation assays 1×10^3 cells/well were seeded in triplicate in 24 well flat bottom plates (Falcon, Franklin Lakes, N.J.) that contained the required dilutions of TSP, TSP peptide-FICOLL conjugates, and growth factors: 1) Oncostatin M (OSM) (PreProtech) at 25 ng/ml, or 2) activated lymphocyte conditioned medium (AL-CM) at 20%. After 7 days, the cells were trypsinized and counted using a Coulter Zm Cell Counter (Coulter Corporation). The values are triplicate determinations and the bars indicate standard deviations, n=3.

AIDS-KS lesion = assay: Kaposi's sarcoma angiogenic lesion formation in nude mice; assay type: in vivo; conditions: intravenous, nude mouse
Experimental: For determination of In vivo Angiogenesis, 2×10^6 AIDS-KS cells suspended in phosphate buffered saline without calcium and magnesium (PBS w/o), passage 6-8, were transplanted subcutaneously on day 0 of the flanks of male Balb/c nu/nu athymic mice. The animals were injected intravenously with increasing dilutions of TSP peptide-FICOLL conjugates or the equivalent concentrations of FICOLL mixed in PBS w/o as a control from days 1-5. On day 6 the angiogenic lesions were observed, measured, fixed in 10% formalin, and stained with hematoxylin-eosin.

MDA MB435 tumor = assay: MDA MB435 orthotopic tumor growth in nude mice; assay type: in vivo, mouse
Experimental: (§1) Tumor cells were allowed to implant for approximately one to three weeks prior to administering the peptide analog or a polysucrose conjugate. […] The inhibitory effect persisted beyond the treatment period, although the growth of the tumors eventually resumed.
The presented experiment consisted of two groups of animals. The objective was to test a peptide conjugate for effects on breast carcinoma growth. The treated animals were injected with MDA435 cells alone on day one and then injected intravenously with drugs from day 10 through approximately day 30. Tumor growth and frequency of metastasis were determined in both groups.
NIH Nu/Nu mice, approximately eight weeks of age are injected with 10^5 MDA MB435 cells by the mammary fat pad route. Mice were anesthetized with 150-200 μl i.p. of a 1:80 dilution in PBS of a solution containing 25 g. tribromoethanol in 12.5 ml tertiary amyl alcohol. The mammary fat pad was cleaned with ethanol and a 10 mm incision was made directly above the site of injection. Mammary fat pad #4 could be observed beneath the skin after the incision was made. Using a 0.1 ml Hamilton syringe and 27 gauge 1/2" needle, 10 μl of cell suspension, 1×10^5 cells in HBSS, are injected into the fat pad. The incision is closed using 1-2 Autoclips ([…], Clay Adams). Autoclips are removed 7 days post-injection and scarring is minimal.
Six animals were injected for each condition, per experiment. Animals were earpunched after injection for subsequent identification. Beginning at day 10 and continuing every day until approximately day 30, the experimental animals were injected i.v. (tail vein) with 0.1 ml of the FICOLL conjugate. Primary tumor size was determined twice weekly by length×width×height measurement, and the animals are observed daily for general health. When the primary tumor of any animal exceeded 20 mm in any dimension, all of the animals were sacrificed. The presence of metastases was determined by gross autopsy and examination of H & E stained sections of any suspicious organ and step sections of the lungs and draining lymph nodes. The primary tumors were removed, stripped free of other tissues, and weighed. At any time during the experiment, animals suspected of being in distress were sacrificed and examined as above.

Toxicity in nude mice = assay type: in vivo, mouse; conditions: free peptide, up to 10 mg/kg
Source text: as §1
Based on published studies of related peptide conjugates (Braatz J. A., Yashuda Y., Olden K., Yamada K. M., Heifetz A. H. (1993): Functional peptide-polyurethane conjugates with extended circulatory half lives. Bioconjugate Chem 4:262-267), the conjugates are predicted have circulating half lives on the order of 10 hours. Free peptides usually have circulating half lives of less than 10 minutes, based on published results. The short half lives were due to clearance or stability of the peptides in plasma. Use of nonhydrolyzable amino acid analogs or capping modifications of the peptides decreases sensitivity to degradation.

[3] = system: thrombospondin binding to heparin; assay: Inhibition of 125I-thrombospondin binding to immobilized heparin-BSA; parameters: species or system human
How it was run: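 Solid-phase binding: heparin-BSA (0.2 μg/well) adsorbed 2 h at 37° in Dulbecco's PBS, blocked with tris-BSA. Peptides in 50 mM tris pH 7.8, NaCl, 1 mM CaCl2, 0.025% NaN3, 1% BSA mixed with 125I-thrombospondin (added at 0.2 μg/ml), 3 h at 4°; after saline washes, bound radioactivity counted.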

[4] = system: bovine aortic endothelial cells; assay: Proliferation of bovine aortic endothelial cells; assay type: cell-based; conditions: free peptide, 40 μM
Experimental: (§2) Endothelial cell proliferation was measured using the CELL TITER 96™ assay (Promega, Madison, Wis.). 5×10^3 cells were plated into each well of a 96-well culture plate in 0.5 or 5% FCS-containing medium together with the indicated concentrations of growth effectors. After 72 h, 15 μl of dye solution was added to each well, and the plates were incubated for an additional 4 h. Solubilization solution was added, and absorbance at 570 nm was determined after 24 h as described by the manufacturer.
FICOLL conjugates of peptide 353 (SEQ ID NO:28) (GGWSHWSPWSSC), 354 (SEQ ID NO:29) (CGGWSHWSPWSS), 224 364 g (SEQ ID NO:30) and 387 (SEQ ID NO:30) (three syntheses of KRFKQDGGWSHWSPWSSC), or free FICOLL were tested at the indicated concentrations as inhibitors of proliferation of bovine aortic endothelial cells in DMEM medium containing 0.5% (FIG. 24A) or 5% (FIG. 24B) fetal calf serum. […] Therefore, the conjugates are general inhibitors of both large and small vessel endothelial cell proliferation. […]
Proliferation of bovine aortic endothelial cells was also determined for cells grown in the presence of the indicated concentrations of peptide 246 (KRFKQDGGWSHWSPWSS) (SEQ ID NO:19) or peptide 416 (retro-inverso) in RPMI-HITES (reg medium) or corresponding conditioned medium from MDA 435 breast carcinoma cells. […]

[5] = system: MDA MB435 breast carcinoma cells; assay: MDA MB435 human breast carcinoma cell proliferation; assay type: cell-based; conditions: free peptide
Experimental: Human breast carcinoma cells MDA MB435 (American Type Culture Collection) were grown in RPMI 1640 medium containing 10% fetal calf serum. Proliferation was determined as described in FIG. 18 and 44A, B and C.
Human breast carcinoma cells MDA MB435 (American Type Culture Collection) were grown in RPMI 1640 medium containing 10% fetal calf serum. Proliferation was determined in the presence of 0.5% fetal calf serum and bFGF as described in FIG. 19.

[6] = system: bovine corneal endothelial cells; assay type: cell-based
Experimental: Corneal bovine endothelial cells (BCE cells) were used at passages 2 through 8 (Munjal et al., 1990). BCE cell cultures were maintained in DMEM (low glucose), containing 10% FCS, 4 mM glutamine, 2.5 μg/ml amphotericin B, and 500 U/ml each of penicillin G potassium and streptomycin sulfate (all media components were from Biofluids Inc., Rockville, Md.). BCE cells were grown at 34° in 5% CO2. The media were changed every 2-3 days.
as §2

[7] = polysucrose/FICOLL conjugate, intravenous

For “TSP: thrombospondin purified from thrombin-stimulated human platelets”, the “stimulation of AIDS-KS cell motility” value (AIDS-KS cells [1]; added in the lower well) was “dose-dependent stimulation of AIDS-KS cell motility”, the IC50 (AIDS-KS cells [1]; added with OSM, read-out: IC50 inhibition of OSM stimulated migration) was under 110 nM and the “inhibition of AIDS-KS cell proliferation, in words” value (AIDS-KS cells [2]) was “concentration dependent decrease in cell number”.
In the case of “364f: KRFKQDGGWSHWSPWSSC conjugated to FICOLL, several preparations (also: conjugated to FICOLL) [Peptide 364f]”, the AIDS-KS lesion formation (AIDS-KS lesion) is reported as “strongly inhibited AIDS-KS lesion formation” and the tumor growth (MDA MB435 tumor; [7]) is reported as “delays tumor growth”.
In the case of `CC(=O)N[C@H](CS)C(=O)N[C@H](CO)C(=O)N[C@H](CO)C(=O)N[C@H](Cc1c[nH]c2ccccc12)C(=O)N1CCC[C@@H]1C(=O)N[C@H](CO)C(=O)N[C@H](Cc1c[nH]c2ccccc12)C(=O)N[C@H](Cc1c[nH]cn1)C(=O)N[C@H](CO)C(=O)N[C@H](Cc1c[nH]c2ccccc12)C(=O)NCC(=O)NCC(=O)N[C@H](CC(=O)O)C(=O)N[C@H](CCC(N)=O)C(=O)N[C@H](CCCCN)C(=O)N[C@H](Cc1ccccc1)C(=O)N[C@H](CCCNC(=N)N)C(=O)N[C@H](CCCCN)C(N)=O` [Peptide 416, ri-amKRFKQDGGWSHWSPWSSCac] (Ac-[dC][dS][dS][dW][dP][dS][dW][dH][dS][dW]GG[dD][dQ][dK][dF][dR][dK]-NH2), the toxicity (Toxicity in nude mice) is reported as “without overt toxicity”, the “inhibition of thrombospondin binding to heparin, in words” value (from here on “inhibition of thrombospondin binding”) ([3]; FICOLL conjugate) is reported as “active” and the “inhibition of thrombospondin binding” value ([3]; free peptide) is reported as “retains heparin-binding activity”. The “inhibition of thrombospondin binding” value ([3]; free peptide, listed as all D-acCSSWPSWHSWGGDQKFRKam) was “retained full activity”, the “activity relative to the native sequence” value ([3]; free retro-inverso peptide) was “approximately three-fold less” and the IC50 ([3]; retro-inverso peptides, free, read-out: IC50 Inhibitory Activity, Free Peptide) was 400 nM. The “inhibition of aortic endothelial cell proliferation, in words” value [4] was “significantly inhibit proliferation”, the “tumor growth, dose response” value (MDA MB435 tumor; 0.2 to 6 mg/kg, treatment with 6 mg/kg) was “maximal inhibition of tumor growth” and the tumor growth (MDA MB435 tumor; free peptide, daily intravenous, 2 mg/kg) was “significantly inhibited tumor growth”. For the same molecule, the tumor growth (MDA MB435 tumor; [7]) was “No significant inhibition of tumor growth” and the “inhibition of MDA MB435 proliferation, in words” value [5] was “substantial inhibition of MDA cell proliferation”.
For `N=C(N)NCCC[C@H](NC(=O)[C@@H](N)CCCCN)C(=O)N[C@@H](Cc1ccccc1)C(=O)N[C@@H](CCCCN)C(=O)N[C@@H](CCC(N)=O)C(=O)N[C@@H](CC(=O)O)C(=O)NCC(=O)NCC(=O)N[C@@H](Cc1c[nH]c2ccccc12)C(=O)N[C@@H](CO)C(=O)N[C@@H](Cc1c[nH]cn1)C(=O)N[C@@H](Cc1c[nH]c2ccccc12)C(=O)N[C@@H](CO)C(=O)N1CCC[C@H]1C(=O)N[C@@H](Cc1c[nH]c2ccccc12)C(=O)N[C@@H](CO)C(=O)N[C@@H](CO)C(=O)O` [Peptide 246, KRFKQDGGWSHWSPWSS] (H-KRFKQDGGWSHWSPWSS-OH), the IC50 [6] was 40000 nM.
